Measured values from US10058495B2, “Method of making a skin care product” (The Procter & Gamble Company, priority 2014, dated 2018).
Residues, ends and D or L forms follow the SMILES beside them. *: point of attachment. Palmitoyl = CCCCCCCCCCCCCCCC(=O)*

Experiment: Ex vivo skin penetration study (Franz cell)
Format: in vitro ADME, human
Settings: arrays 1 (uni-directional, 27 mT) and 2 (bi-directional, overall 21 mT) of Table 1 versus other arrays tested; 400 μg/ml in 50:50 PG:PB at pH 4
Method: An ex vivo skin penetration study was conducted to compare the ability of different magnetic arrays to enhance penetration of Pal-KTTKS (SEQ ID NO: 1) into the epidermis of human skin. The dermis and epidermis of human skin samples obtained from donors aged 60-65 years were heat separated and the dermis discarded. 20 μL of a Pal-KTTKS (SEQ ID NO: 1) containing composition (400 μg/ml in 50:50 PG:PB at pH 4) was placed on human epidermis in Franz cell. Different magnetic arrays were positioned approximately 1.0 mm above the epidermis samples and moved over the samples at the speed a user might move a cosmetic applicator when applying a skin care product (e.g., about 20-25 cm/sec). Samples were taken and measured at 0, 1, 2, 4, 6, 8, 24 hours. […] For the bi-directional arrays herein, the “1st layer” refers to the layer closest to the skin-contacting surface of the applicator, and the “2nd layer” refers to the layer disposed on the side of the 1st layer opposite the side closest to the skin-contacting surface.

Q: Which “penetration enhancement of Pal-KTTKS into epidermis” value does the source give for CCCCCCCCCCCCCCCC(=O)N[C@@H](CCCCN)C(=O)N[C@H](C(=O)N[C@H](C(=O)N[C@@H](CCCCN)C(=O)N[C@@H](CO)C(=O)O)[C@@H](C)O)[C@@H](C)O [Pal-KTTKS, palmitoyl-lysine-threonine-threonine-lysine-serine] (Palmitoyl-KTTKS-OH; C-terminus assumed) here?
A: best penetration enhancement
